# Measured values as given in patent US7491533B2, “Polynucleotides encoding an isolated β-islet cell two-pore domain potassium channel” (Metabolex, Inc., priority 2002, dated 2009).
# Target: T1, BIK channels (Homo sapiens, UniProt Q96T55, A277E)
# T1 construct: expressed in transfected cells
# T1 sequence (Q96T55 1-294 isoform Q96T55-3 A277E): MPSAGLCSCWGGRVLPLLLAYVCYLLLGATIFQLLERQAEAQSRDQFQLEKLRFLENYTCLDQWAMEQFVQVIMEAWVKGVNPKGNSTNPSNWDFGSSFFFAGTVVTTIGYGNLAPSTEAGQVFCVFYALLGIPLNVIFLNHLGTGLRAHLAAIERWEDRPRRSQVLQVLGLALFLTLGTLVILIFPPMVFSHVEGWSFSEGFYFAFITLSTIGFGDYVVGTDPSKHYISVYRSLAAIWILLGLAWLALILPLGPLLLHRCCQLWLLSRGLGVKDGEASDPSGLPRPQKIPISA
# Experiment: FlexStation / FLIPR Membrane Potential Dye assay in stable HEK293 transfectants
# Assay type: cell-based
# Protocol: HEK293 cells stably transfected with pcDNA3.1 (circles) or the same vector allowing expression of BIK (squares) or TASK-2 (triangles) were plated in 96 well assay plates 24 h prior to analysis. Cells were incubated in 100 μl of 0.5×FLIPR Membrane Potential Dye (Molecular Devices) for 30 min. Methanadamide dilutions in DMSO were added to the wells by a FlexStation device (Molecular Devices), the fluorescence intensity changes were recorded before, during and after addition of the compound. The fluorescence intensity changes are plotted as the percent increase from the basal value recorded prior to compound addition. The values are the mean and range of duplicate wells. Similar results were obtained in three other independent experiments.
# High level expression of a background/leak potassium channel such as BIK in fibroblasts results in hyperpolarization of the plasma membrane. Further, monitoring the membrane potential of these cells provides an assay for detecting small molecule blockers of BIK. We made stable HEK293 cell lines expressing BIK (and the well characterized background channel TASK2 for comparison) and characterized them using a FLIPR Membrane Potential Dye and FlexStation microplate fluorometer. […] Furthermore, BIK and TASK2 cells display a 3 to 5-fold greater change in fluorescence upon depolarization with 30 mM KCl compared to vector transfected stable cell lines. […]
compound,measurement,setting,value
CCCCC/C=C\C/C=C\C/C=C\C/C=C\CCCC(=O)N[C@H](C)CO [Methanandamide],selectivity of BIK channel inactivation (result in words),"HEK293 stably transfected with pcDNA3.1, BIK or TASK-2, fluorescence change as percent increase from basal",partially selective inactivator of BIK
same,fold greater increase in fluorescence (depolarization) in BIK cells than in TASK2 or vector control cells,"compound at 100 μM, HEK293 cells stably expressing BIK vs TASK2 or vector (pcDNA3.1)",3 fold
